Test results from US10821115B2, “Compounds that inhibit Mcl-1 protein” (priority 2017, dated 2020).
Read-outs that look alike come from different tables or passages of the source.

How the values were obtained:
[1] = biological target: recombinant human Mcl-1 (residues 171-327) / Bim interaction (Homo sapiens (Human), UniProt Q07820); assay: biochemical; type: binding; conditions: read-out: Mcl-1 HTRF IC50
[2] = tested on: human multiple myeloma cell line, OPM-2; assay: Cell viability assay (OPM-2 10 FBS), CellTiter-Glo; type: cell-based
In short: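 IC50 values come from 4-parameter logistic fits of luminescence signals reflecting cell viability. Treatment lasted 16 h at 37 °C in complete medium with 10% FBS, starting from 3000 cells/well.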

[3] = TR-FRET, Mcl-1(171-327) / biotin-Bim (51-76)
[4] = Homo sapiens, OPM-2, 16 h, read-out: OPM-2 10% FBS IC50 IP, OPM-2 cells, 10% FBS, 16 h, CellTiter-Glo
[5] = 0.1 nM Mcl-1(171-327), 0.05 nM biotin-Bim (51-76)
[6] = Homo sapiens, OPM-2, 16 h, read-out: OPM-2 10% FBS IC50 IP, OPM-2 cells, 10% FBS, 16 h incubation
[7] = read-out: OPM-2 10% FBS IC50 IP, OPM-2 cells, 10% FBS, 16 h, CellTiter-Glo

Chain of recombinant human Mcl-1 (residues 171-327) / Bim interaction (Q07820 171-327): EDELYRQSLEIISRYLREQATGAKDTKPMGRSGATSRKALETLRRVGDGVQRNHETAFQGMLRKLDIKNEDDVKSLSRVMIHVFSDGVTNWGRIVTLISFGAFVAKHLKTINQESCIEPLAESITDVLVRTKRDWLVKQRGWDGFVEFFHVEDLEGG

| Structure (SMILES) | IC50 [1, 3] [nM] | IC50 [2, 4] [nM] | IC50 [1, 5] [nM] | IC50 [2, 6] [nM] | further results |
| --- | --- | --- | --- | --- | --- |
| C#C[C@]1(O)/C=C/C[C@H](C)[C@@H](C)S(=O)(=O)NC(=O)c2ccc3c(c2)N(C[C@@H]2CC[C@H]21)C[C@@]1(CCCc2cc(Cl)ccc21)CO3 [Example 100244, (1S,3′R,6′R,7′S,8′E,11′S,12′R)-6-chloro-7′-ethynyl-7′-hydroxy-11′,12′-dimethyl-3,4-dihydro-2H,15′H-spiro[naphthalene-1,22′-[20]oxa[13]thia[1,14]diazatetracyclo [14.7.2.0~3,6~.0~19,24~]pentacosa[8,16,18,24]tetraen]-15′-one 13′,13′-dioxide] | 0.182 | 49 | – | – | – |
| COCC(COC)N1CCN(C[C@]2(OC)/C=C/C[C@H](C)[C@@H](C)S(=O)(=O)NC(=O)c3ccc4c(n3)N(C[C@@H]3CC[C@H]32)C[C@@]2(CCCc3cc(Cl)ccc32)CO4)CC1 [Example 371, (1S,3′R,6′R,7′S,8′E,11′S,12′R)-6-chloro-7′-methoxy-7′-((4-(2-methoxy-1-(methoxymethyl)ethyl)-1-piperazinyl)methyl)-11′,12′-dimethyl-3,4-dihydro-2H,15′H-spiro[naphthalene1,22′-[20]oxa[13]thia[1,14,25]triazatetracyclo [14.7.2.0~3,6~.0~19,24~]pentacosa[8,16,18,24]tetraen]-15′-one 13′,13′-dioxide] | – | – | 0.101 | 43 | – |
| CO[C@]1(CCN2CC(C)(N(C)C)C2)/C=C/C[C@H](C)[C@@H](C)S(=O)(=O)NC(=O)c2ccc3c(c2)N(C[C@@H]2CC[C@H]21)C[C@@]1(CCCc2cc(Cl)ccc21)CO3 [Example 100453, (1S,3′R,6′R,7′R,8′E,11′S,12′R)-6-chloro-7′-(2-(3-(dimethylamino)-3-methyl-1-azetidinyl)ethyl)-7′-methoxy-11′,12′-dimethyl-3,4-dihydro-2H,15′H-spiro[naphthalene-1,22′-[20]oxa[13]thia[1,14]diazatetracyclo [14.7.2.0~3,6~.0~19,24~]pentacosa[8,16,18,24]tetraen]-15′-one 13′,13′-dioxide] | 0.927 | 2930 | – | – | – |
| COCCN(C)C(=O)C[C@]1(O)CCC[C@H](C)[C@@H](C)S(=O)(=O)NC(=O)c2ccc3c(c2)N(C[C@@H]2CC[C@H]21)C[C@@]1(CCCc2cc(Cl)ccc21)CO3 [Example 100140, 2-((1S,3′R,6′R,7′R,11′S,12′R)-6-chloro-7′-hydroxy-11′,12′-dimethyl-13′,13′-dioxido-15′-oxo-3,4-dihydro-2H-spiro[naphthalene-1,22′-[20]oxa[13]thia[1,14]diazatetracyclo [14.7.2.0~3,6~.0~19,24~]pentacosa[16,18,24]trien]-7′-yl)-N-(2-methoxyethyl)-N-methylacetamide] | 0.486 | – | – | – | IC50 [2, 7]: 299 nM |
| COC[C@@H]1[C@@H](C)C/C=C/[C@](CN2CCN(C3COC3)CC2)(OC)[C@@H]2CC[C@H]2CN2C[C@@]3(CCCc4cc(Cl)ccc43)COc3ccc(cc32)C(=O)NS1(=O)=O [Example 170, (1S,3′R,6′R,7′S,8′E,11′S,12′S)-6-chloro-7′-methoxy-12′-(methoxymethyl)-11′-methyl-7′-((4-(3-oxetanyl)-1-piperazinyl)methyl)-3,4-dihydro-2H,15′H-spiro[naphthalene-1,22′-[20]oxa[13]thia[1,14]diazatetracyclo [14.7.2.0~3,6~.0~19,24~]pentacosa[8,16,18,24]tetraen]-15′-one 13′,13′-dioxide] | – | – | 0.131 | 75 | – |
| CO[C@]1(c2ncccn2)CCC[C@H](C)[C@@H](C)S(=O)(=O)NC(=O)c2ccc3c(c2)N(C[C@@H]2CC[C@H]21)C[C@@]1(CCCc2cc(Cl)ccc21)CO3 [Example 100276, (1S,3′R,6′R,7′R,11′S,12′R)-6-chloro-7′-methoxy-11′,12′-dimethyl-7′-(2-pyrimidinyl)-3,4-dihydro-2H,15′H-spiro[naphthalene-1,22′-[20]oxa[13]thia[1,14]diazatetracyclo [14.7.2.0~3,6~.0~19,24~]pentacosa[16,18,24]trien]-15′-one 13′,13′-dioxide] | 0.326 | 1530 | – | – | – |
| CO[C@]1(CN2CCN3C[C@H](C)OC[C@@H]3C2)/C=C/C[C@H](C)[C@@H](C)S(=O)(=O)NC(=O)c2ccc3c(c2)N(C[C@@H]2CC[C@H]21)C[C@@]1(CCCc2cc(Cl)ccc21)CO3 [Example 146, (1S,3′R,6′R,7′R,8′E,11′S,12′R)-6-chloro-7′-methoxy-11′,12′-dimethyl-7′-(((3S,9aS)-3-methylhexahydropyrazino[2,1-c][1,4]oxazin-8(1H)-yl)methyl)-3,4-dihydro-2H,15′H-spiro[naphthalene-1,22′-[20]oxa[13]thia[1,14]diazatetracyclo [14.7.2.0~3,6~.0~19,24~]pentacosa[8,16,18,24]tetraen]-15′-one 13′,13′-dioxide] | – | – | 0.337 | 150 | – |
| COCC[C@@H]1[C@@H](C)C/C=C/[C@@](CN2CCN(C3(C)COC3)CC2)(OC)[C@@H]2CC[C@H]2CN2C[C@@]3(CCCc4cc(Cl)ccc43)COc3ccc(cc32)C(=O)NS1(=O)=O [Example 192, (1S,3′R,6′R,7′R,8′E,11′S,12′R)-6-chloro-7′-methoxy-12′-(2-methoxyethyl)-11′-methyl-7′-((4-(3-methyl-3-oxetanyl)-1-piperazinyl)methyl)-3,4-dihydro-2H,15′H-spiro[naphthalene-1,22′-[20]oxa[13]thia[1,14]diazatetracyclo [14.7.2.0~3,6~.0~19,24~]pentacosa[8,16,18,24]tetraen]-15′-one 13′,13′-dioxide] | – | – | 0.078 | 65 | – |
| CCCO[C@]1(CN2CCN(C3COC3)CC2)/C=C/C[C@H](C)[C@@H](C)S(=O)(=O)NC(=O)c2ccc3c(c2)N(C[C@@H]2CC[C@H]21)C[C@@]1(CCCc2cc(Cl)ccc21)CO3 [Example 352, (1S,3′R,6′R,7′R,8′E,11′S,12′R)-6-chloro-11′,12′-dimethyl-7′-((4-(3-oxetanyl)-1-piperazinyl)methyl)-7′-propoxy-3,4-dihydro-2H,15′H-spiro[naphthalene-1,22-[20]oxa[13]thia[1,14]diazatetracyclo [14.7.2.0~3,6~.0~19,24~]pentacosa[8,16,18,24]tetraen]-15′-one 13′,13′-dioxide] | – | – | 0.111 | 162 | – |
| C[C@@H]1[C@@H](C)CCC[C@@](O)(Cc2nccn2C)[C@@H]2CC[C@H]2CN2C[C@@]3(CCCc4cc(Cl)ccc43)COc3ccc(cc32)C(=O)NS1(=O)=O [Example 100162, (1S,3′R,6′R,7′R,11′S,12′R)-6-chloro-7′-hydroxy-11′,12′-dimethyl-7′-((1-methyl-1H-imidazol-2-yl)methyl)-3,4-dihydro-2H,15′H-spiro[naphthalene-1,22′-[20]oxa[13]thia[1,14]diazatetracyclo [14.7.2.0~3,6~.0~19,24~]pentacosa[16,18,24]trien]-15′-one 13′,13′-dioxide] | 3.47 | – | – | – | IC50 [2, 7]: 2870 nM |
| CO[C@@]1(CN2CCN(CC3OCCO3)CC2)/C=C/C[C@H](C)[C@@H](C)S(=O)(=O)NC(=O)c2ccc3c(c2)N(C[C@@H]2CC[C@H]21)C[C@@]1(CCCc2cc(Cl)ccc21)CO3 [Example 309, (1S,3′R,6′R,7′S,8′E,11′S,12′R)-6-chloro-7′-((4-(1,3-dioxolan-2-ylmethyl)-1-piperazinyl)methyl)-7′-methoxy-11′,12′-dimethyl-3,4-dihydro-2H,15′H-spiro[naphthalene-1,22′-[20]oxa[13]thia[1,14]diazatetracyclo [14.7.2.0~3,6~.0~19,24~]pentacosa[8,16,18,24]tetraen]-15′-one 13′,13′-dioxide] | – | – | 0.215 | 64 | – |
| C[C@@H]1[C@@H](C)C/C=C/[C@@](O)(CC#N)[C@@H]2CC[C@H]2CN2C[C@@]3(CCCc4cc(Cl)ccc43)COc3ccc(cc32)C(=O)NS1(=O)=O [Example 100050, ((1S,3′R,6′R,7′S,8′E,11′S,12′R)-6-chloro-7′-hydroxy-11′,12′-dimethyl-13′,13′-dioxido-15′-oxo-3,4-dihydro-2H-spiro[naphthalene-1,22′-[20]oxa[13]thia[1,14]diazatetracyclo [14.7.2.0~3,6~.0~19,24~]pentacosa[8,16,18,24]tetraen]-7′-yl)acetonitrile] | – | – | – | – | IC50 [1]: 1.28 nM; IC50 [2, 7]: 3820 nM |
| C[C@@H]1[C@@H](C)C/C=C/[C@@](C)(OCCN2CCOCC2)[C@@H]2CC[C@H]2CN2C[C@@]3(CCCc4cc(Cl)ccc43)COc3ccc(cc32)C(=O)NS1(=O)=O [Example 100467, (1S,3′R,6′R,7′R,8′E,11′S,12′R)-6-chloro-7′,11′,12′-trimethyl-7′-(2-(4-morpholinyl)ethoxy)-3,4-dihydro-2H,15′H-spiro[naphthalene-1,22′-[20]oxa[13]thia[1,14]diazatetracyclo [14.7.2.0~3,6~.0~19,24~]pentacosa[8,16,18,24]tetraen]-15′-one 13′,13′-dioxide] | 0.303 | 516 | – | – | – |
| CO[C@@]1(Cc2ncccc2C)/C=C/C[C@H](C)[C@@H](C)S(=O)(=O)NC(=O)c2ccc3c(c2)N(C[C@@H]2CC[C@H]21)C[C@@]1(CCCc2cc(Cl)ccc21)CO3 [Example 100542, (1S,3′R,6′R,7′S,8′E,11′S,12′R)-6-chloro-7′-methoxy-11′,12′-dimethyl-7′-((3-methyl-2-pyridinyl)methyl)-3,4-dihydro-2H,15′H-spiro[naphthalene-1,22′-[20]oxa[13]thia[1,14]diazatetracyclo [14.7.2.0~3,6~.0~19,24~]pentacosa[8,16,18,24]tetraen]-15′-one 13′,13′-dioxide] | 0.229 | 902 | – | – | – |
